What is called Ki is a measure of affinity in units of concentration, obtained from inhibition or displacement. Low readings indicate higher affinity, high ones lower affinity.

Among the data in patent US9365583B2, “Substituted pyrazoles and uses thereof” (Genentech, Inc., priority 2013, dated 2016) are Ki values, retold here.

This assay has as its target T1, N-terminally GST-tagged DLK (catalytic domain amino acid 1-520) (Homo sapiens, UniProt Q12852).
T1 construct: N-terminally GST-tagged DLK (catalytic domain amino acid 1-520); purchased Carna Bioscience
T1 sequence (Q12852 1-520): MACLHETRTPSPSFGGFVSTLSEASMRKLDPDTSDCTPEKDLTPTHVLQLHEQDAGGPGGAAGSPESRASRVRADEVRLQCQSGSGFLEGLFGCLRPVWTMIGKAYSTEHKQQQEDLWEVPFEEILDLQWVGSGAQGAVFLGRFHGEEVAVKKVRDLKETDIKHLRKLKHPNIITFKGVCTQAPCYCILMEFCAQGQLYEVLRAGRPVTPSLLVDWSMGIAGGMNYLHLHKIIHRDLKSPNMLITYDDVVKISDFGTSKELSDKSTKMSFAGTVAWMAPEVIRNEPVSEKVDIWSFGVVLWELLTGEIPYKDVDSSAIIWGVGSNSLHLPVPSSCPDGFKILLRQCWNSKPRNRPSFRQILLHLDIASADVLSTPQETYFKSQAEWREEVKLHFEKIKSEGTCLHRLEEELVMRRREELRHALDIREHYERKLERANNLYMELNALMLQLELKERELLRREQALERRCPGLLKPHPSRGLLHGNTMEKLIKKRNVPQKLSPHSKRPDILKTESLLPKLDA
Put plainly: DLK TR-FRET inhibition assay. The format is biochemical. The conditions noted are these: 5 nM GST-DLK, 40 nM HIS-MKK4 K131M substrate, 30 μM ATP, 60 minutes at ambient temperature. On the procedure:
DLK TR-FRET inhibition assay: DLK kinase reactions (20 μL) containing 5 nM N-terminally GST-tagged DLK (catalytic domain amino acid 1-520) (Carna Bioscience), 40 nM N-terminally HIS-tagged MKK4 K131M substrate, and 30 μM ATP in kinase reaction buffer (50 mM HEPES, pH 7.5, 0.01% Triton X-100, 0.01% Bovine γ-Globulins, 2 mM DTT, 10 mM MgCl2 and 1 mM EGTA), and testing compound 1:3 serial diluted starting at 20 uM were incubated at ambient temperature for 60 minutes in 384 well OptiPlate (Perkin Elmer). To quench kinase reactions and detect phosphorylated MKK4, 15 μL of TR-FRET antibody mixture containing 2 nM anti-phosphorylated MKK4 labeled with Europium cryptate (Cisbio) and 23 nM anti-HIS labeled with D2 (Cisbio) in detection buffer (25 mM Tris pH 7.5, 100 mM NaCl, 100 mM EDTA, 0.01% Tween-20, and 200 mM KF) was added to the reaction mixture. The detection mixture was incubated for 3 hours at ambient temperature and the TR-FRET was detected with an EnVision multilabel plate reader (Perkin-Elmer) using the LANCE/DELFIA Dual Enh label from Perkin-Elmer (excitation filter: UV2 (TRF) 320 and emission filters: APC 665 and Europium 615).
(In general: Time-resolved FRET reads energy transfer from a long-lived donor to a nearby acceptor.)
With `CC(C)n1nc(-c2cnc(N)c(C(F)(F)F)c2)cc1[C@H]1[C@@H]2C[C@H](OC3COC3)C[C@@H]21` [compound 287, 5-(1-isopropyl-5-((1R,3r,5S,6r)-3-(oxetan-3-yloxy)bicyclo[3.1.0]hexan-6-yl)-1H-pyrazol-3-yl)-3-(trifluoromethyl)pyridin-2-amine], the Ki was 6.3 nM.
The result for `CC(C)n1nc(-c2cnc(N)c(OC(F)F)c2)cc1[C@H]1[C@@H]2CC3(COC3)C[C@@H]21` [compound 170, 3-(difluoromethoxy)-5-(1-isopropyl-5-((1R,5S,6r)-spiro[bicyclo [3.1.0]hexane-3,3′-oxetan]-6-yl)-1H-pyrazol-3-yl)pyridin-2-amine] reads 4.5 nM.
Next, `CO[C@H]1CCN([C@@H]2C[C@@H]3[C@H](C2)[C@H]3c2cc(-c3cnc(N)c(OC(F)F)c3)nn2CC2CC2)C1` [compound 159, 5-(1-(cyclopropylmethyl)-5-((1R,3s,5S,6S)-3-((S)-3-methoxy-pyrrolidin-l-yl)bicyclo[3.1.0]hexan-6-yl)-1H-pyrazol-3-yl)-3-(difluoromethoxy)pyridin-2-amine]: 1.9 nM.
Next, `CC(C)n1nc(-c2cnc(N)c(OC(F)(F)F)c2)cc1[C@H]1[C@@H]2C[C@@H](N3CCO[C@@H](C)C3)C[C@@H]21` [compound 113, 5-(1-isopropyl-5-((1R,3s,5S,6S)-3-((S)-2-methylmorpholino)bicyclo[3.1.0]hexan-6-yl)-1H-pyrazol-3-yl)-3-(trifluoromethoxy) pyridin-2-amine]: 4.23 nM.
`Nc1ncc(-c2cc([C@H]3[C@@H]4C[C@@H](N5CCOCC5)C[C@@H]43)n(CC3CC3)n2)cc1C(F)(F)F` [compound 280, 5-(1-(cyclopropylmethyl)-5-((1R,3s,5S,6r)-3-morpholinobicyclo [3.1.0]hexan-6-yl)-1H-pyrazol-3-yl)-3-(trifluoromethyl)pyridin-2-amine]: the affinity corresponds to a Ki of 1.1 nM.
The result for `CC(C)n1nc(-c2cnc(N)c(OC(F)F)c2)cc1[C@H]1[C@@H]2C[C@H](N3CC4(CN(C)CCO4)C3)C[C@@H]21` [compound 228, 3-(difluoromethoxy)-5-(1-isopropyl-5-((1R,3r,5S,6r)-3-(8-methyl-5-oxa-2,8-diazaspiro[3.5]nonan-2-yl)bicyclo[3.1.0]hexan-6-yl)-1H-pyrazol-3-yl)pyridin-2-amine] reads 2.8 nM; that for `CC(C)n1nc(-c2cnc(N)c(OC(F)(F)F)c2)cc1[C@H]1[C@@H]2C[C@@]3(CCN3C3COC3)C[C@@H]21` [compound 140, 5-(1-isopropyl-5-((1′R,2r,5′S,6′r)-1-(oxetan-3-yl)spiro[azetidine-2,3′-bicyclo[3.1.0]hexan]-6′-yl)-1H-pyrazol-3-yl)-3-(trifluoro-methoxy)pyridin-2-amine], 6.59 nM.
The result for `CC(C)n1nc(-c2cnc(N)c(OC(F)F)c2)cc1[C@H]1[C@@H]2C[C@@H](N3CCO[C@@H](C)C3)C[C@@H]21` [compound 75, 3-(difluoromethoxy)-5-(1-isopropyl-5-((1R,3s,5S,6S)-3-((S)-2-methylmorpholino)bicyclo[3.1.0]hexan-6-yl)-1H-pyrazol-3-yl) pyridin-2-amine] reads 0.74 nM; that for `CC(C)n1nc(-c2cnc(N)c(C(F)(F)F)c2)cc1[C@H]1[C@@H]2CC(N3CC4COCC4C3)C[C@@H]21` (single isomer, unassigned) [compound 270], 2.8 nM; that for `CC(C)n1nc(-c2cnc(N)c(C(F)(F)F)c2)cc1[C@@H]1[C@H]2CC[C@@H](N3CCOCC3)[C@H]21` (single isomer, unassigned) [compound 139, 5-(1-isopropyl-5-(2-morpholinobicyclo[3.1.0]hexan-6-yl)-1H-pyrazol-3-yl)-3-(trifluoromethyl) pyridin-2-amine], 65.7 nM.
Take `COC1CCN([C@@H]2C[C@@H]3[C@H](C2)[C@H]3c2cc(-c3cnc(N)c(C(F)(F)F)c3)nn2C(C)C)CC1` [compound 249, 5-(1-isopropyl-5-((1R,3s,5S,6r)-3-(4-methoxypiperidin-1-yl)bicyclo[3.1.0]hexan-6-yl)-1H-pyrazol-3-yl)-3-(trifluoromethyl) pyridin-2-amine]: the inhibition constant Ki was determined as 2.6 nM.
The result for `CC(C)n1nc(-c2cnc(N)c(OC(F)F)c2)cc1[C@H]1[C@@H]2CC(C)(O)C[C@@H]21` (stereo partly drawn) [compound 105, (1R,5S,6r)-6-(3-(6-amino-5-(difluoro-methoxy)pyridin-3-yl)-1-isopropyl-1H-pyrazol-5-yl)-3-methyl-bicyclo[3.1.0]hexan-3-ol] reads 18.3 nM; that for `CC(C)n1nc(-c2cnc3ccn([C@H](C)c4ccccn4)c3c2)cc1[C@H]1[C@@H]2C[C@H](N3CCOCC3)C[C@@H]21` [compound 26, 4-((1R,3R,5S,6r)-6-(1-isopropyl-3-(1-((R)-1-(pyridin-2-yl)ethyl)-1H-pyrrolo[3,2-b]pyridin-6-yl)-1H-pyrazol-5-yl)bicyclo[3.1.0]hexan-3-yl)morpholine], 75.6 nM; that for `CC(C)n1nc(-c2cnc(N)c(C(F)(F)F)c2)cc1[C@H]1[C@@H]2C[C@@H](N3CCCC3=O)C[C@@H]21` [compound 44, 1-((1R,3s,5S,6r)-6-(3-(6-amino-5-(trifluoromethyl)pyridin-3-yl)-1-isopropyl-1H-pyrazol-5-yl)bicyclo[3.1.0]hexan-3-yl)pyrrolidin-2-one], 8.2 nM.
The result for `CC(C)n1nc(-c2cnc(N)c(OC(F)F)c2)cc1[C@H]1[C@@H]2C[C@@H](N3CC[C@H](F)C3)C[C@@H]21` [compound 289, 3-(difluoromethoxy)-5-(5-((1R,3s,5S,6S)-3-((S)-3-fluoropyrrolidin-1-yl)bicyclo[3.1.0]hexan-6-yl)-1-isopropyl-1H-pyrazol-3-yl) pyridin-2-amine] reads 4.4 nM; that for `CC(C)n1nc(-c2cnc(N)c(C(F)(F)F)c2)cc1[C@H]1[C@@H]2C[C@H](N3CCOC3=O)C[C@@H]21` [compound 59, 3-((1R,3r,5S,6r)-6-(3-(6-amino-5-(trifluoromethyl)pyridin-3-yl)-1-isopropyl-1H-pyrazol-5-yl)bicyclo[3.1.0]hexan-3-yl) oxazolidin-2-one], 3.06 nM.
Next, `CC(C)n1nc(-c2cnc3ccn([C@@H](C)c4ccccn4)c3c2)cc1[C@H]1[C@@H]2C[C@@H](N3CCOCC3)C[C@@H]21` [compound 24, 4-((1R,3R,5S,6r)-6-(1-isopropyl-3-(1-((S)-1-(pyridin-2-yl)ethyl)-1H-pyrrolo[3,2-b]pyridin-6-yl)-1H-pyrazol-5-yl)bicyclo[3.1.0]hexan-3-yl)morpholine]: 0.34 nM; `CC(C)n1nc(-c2cnc(N)c(C(F)(F)F)c2)cc1[C@H]1[C@@H]2C[C@@H](N3CCN(C)C[C@@H]3C)C[C@@H]21` [compound 239, 5-(5-((1R,3s,5S,6S)-3-((S)-2,4-dimethylpiperazin-1-yl)bicyclo [3.1.0]hexan-6-yl)-1-isopropyl-1H-pyrazol-3-yl)-3-(trifluoromethyl) pyridin-2-amine]: 1.7 nM; `Nc1ncc(-c2cc([C@H]3[C@@H]4C[C@H](N5CCCOCC5)C[C@@H]43)n(CC(F)F)n2)cc1OC(F)F` [compound 233, 5-(5-((1R,3r,5S,6r)-3-(1,4-oxazepan-4-yl)bicyclo[3.1.0]hexan-6-yl)-1-(2,2-difluoroethyl)-1H-pyrazol-3-yl)-3-(difluoromethoxy) pyridin-2-amine]: 1.8 nM.
Molecule `CC(C)n1nc(-c2cnc(N)c(OC(F)(F)F)c2)cc1[C@H]1[C@@H]2C[C@H](N3CCOCC3)C[C@@H]21` [compound 69, 5-(1-isopropyl-5-((1R,3r,5S,6r)-3-morpholinobicyclo[3.1.0]hexan-6-yl)-1H-pyrazol-3-yl)-3-(trifluoromethoxy)pyridin-2-amine] yielded a Ki of 2.97 nM.
The result for `CC(C)n1nc(-c2cnc(N)c(OC(F)F)c2)cc1[C@H]1[C@@H]2C[C@@H](N3CC4CC(C3)O4)C[C@@H]21` [compound 278, 5-(5-((1R,3s,5S,6r)-3-(6-oxa-3-azabicyclo[3.1.1]heptan-3-yl)bicyclo[3.1.0]hexan-6-yl)-1-isopropyl-1H-pyrazol-3-yl)-3-(difluoromethoxy)pyridin-2-amine] reads 1.4 nM.
In turn, `CC(C)n1nc(-c2cnc(N)c(C(F)(F)F)c2)cc1[C@@H]1[C@@H]2C[C@@H](O)C[C@@H]21` [compound 122, (1R,3s,5S,6s)-6-(3-(6-amino-5-(trifluoromethyl)pyridin-3-yl)-1-isopropyl-1H-pyrazol-5-yl) bicyclo[3.1.0]hexan-3-ol] had an inhibition constant Ki of over 321 nM.
